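Dose response: 5 concentrations. Exposure: 48 h. Format: 96-well plates. Endpoint: linear interpolation; highest concentration if not reached. At the GI50, growth is halved. TGI: concentration producing complete growth inhibition.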
Experiments:
Assay in all cases: NCI tumour cell line growth inhibition, 48 h
786-0 renal = test system: 786-0 renal
A498 renal = test system: A498 renal
A549 NSCLC = test system: A549 NSCLC
ACHN renal = test system: ACHN renal
BT-549 breast = test system: BT-549 breast
CAKI-1 renal = test system: CAKI-1 renal
CCRF-CEM leukemia = test system: CCRF-CEM leukemia
COLO 205 colon = test system: COLO 205 colon
DU-145 prostate = test system: DU-145 prostate
HCC-2998 colon = test system: HCC-2998 colon
HCT-116 colon = test system: HCT-116 colon
HCT-15 colon = test system: HCT-15 colon
HL-60(TB) leukemia = test system: HL-60(TB) leukemia
HOP-62 NSCLC = test system: HOP-62 NSCLC
HOP-92 NSCLC = test system: HOP-92 NSCLC
HT29 colon = test system: HT29 colon
IGROV1 ovarian = test system: IGROV1 ovarian
K-562 leukemia = test system: K-562 leukemia
KM12 colon = test system: KM12 colon
LOX IMVI melanoma = test system: LOX IMVI melanoma
M14 melanoma = test system: M14 melanoma
MALME-3M melanoma = test system: MALME-3M melanoma
MCF7 breast = test system: MCF7 breast
MDA-MB-231 breast = test system: MDA-MB-231 breast
MDA-MB-435 = test system: MDA-MB-435
MOLT-4 leukemia = test system: MOLT-4 leukemia
NCI-H226 lung = test system: NCI-H226 lung
NCI-H23 lung = test system: NCI-H23 lung
NCI-H460 lung = test system: NCI-H460 lung
NCI-H522 lung = test system: NCI-H522 lung
NCI/ADR-RES ovarian = test system: NCI/ADR-RES ovarian
OVCAR-3 ovarian = test system: OVCAR-3 ovarian
OVCAR-4 ovarian = test system: OVCAR-4 ovarian
OVCAR-5 ovarian = test system: OVCAR-5 ovarian
OVCAR-8 ovarian = test system: OVCAR-8 ovarian
PC-3 prostate = test system: PC-3 prostate
RPMI-8226 leukemia = test system: RPMI-8226 leukemia
RXF 393 renal = test system: RXF 393 renal
SF-268 CNS = test system: SF-268 CNS
SF-295 CNS = test system: SF-295 CNS
SF-539 CNS = test system: SF-539 CNS
SK-MEL-2 melanoma = test system: SK-MEL-2 melanoma
SK-MEL-28 melanoma = test system: SK-MEL-28 melanoma
SK-MEL-5 melanoma = test system: SK-MEL-5 melanoma
SK-OV-3 ovarian = test system: SK-OV-3 ovarian
SN12C renal = test system: SN12C renal
SNB-19 CNS = test system: SNB-19 CNS
SNB-75 CNS = test system: SNB-75 CNS
SR leukemia = test system: SR leukemia
SW-620 colon = test system: SW-620 colon
T-47D breast = test system: T-47D breast
TK-10 renal = test system: TK-10 renal
U251 CNS = test system: U251 CNS
UACC-62 melanoma = test system: UACC-62 melanoma
UO-31 renal = test system: UO-31 renal

C=CC(C)c1cccc(C=O)c1O (stereo not given)
GI50 (786-0 renal): 97.1 µM
TGI (786-0 renal): > 100 µM
GI50 (A498 renal): > 100 µM
TGI (A498 renal): > 100 µM
GI50 (A549 NSCLC): > 100 µM
TGI (A549 NSCLC): > 100 µM
GI50 (ACHN renal): 80.9 µM
TGI (ACHN renal): > 100 µM
GI50 (BT-549 breast): 23.8 µM
TGI (BT-549 breast): > 100 µM
GI50 (CAKI-1 renal): 45 µM
TGI (CAKI-1 renal): > 100 µM
GI50 (CCRF-CEM leukemia): 17.4 µM
TGI (CCRF-CEM leukemia): > 100 µM
GI50 (COLO 205 colon): > 100 µM
TGI (COLO 205 colon): > 100 µM
GI50 (DU-145 prostate): 94.9 µM
TGI (DU-145 prostate): > 100 µM
GI50 (HCC-2998 colon): > 100 µM
TGI (HCC-2998 colon): > 100 µM
GI50 (HCT-116 colon): 18.1 µM
TGI (HCT-116 colon): > 100 µM
GI50 (HCT-15 colon): 22 µM
TGI (HCT-15 colon): > 100 µM
GI50 (HL-60(TB) leukemia): 19.9 µM
TGI (HL-60(TB) leukemia): > 100 µM
GI50 (HOP-62 NSCLC): 49.3 µM
TGI (HOP-62 NSCLC): > 100 µM
GI50 (HOP-92 NSCLC): 4.93 µM
TGI (HOP-92 NSCLC): 70.5 µM
GI50 (HT29 colon): 37 µM
TGI (HT29 colon): > 100 µM
GI50 (IGROV1 ovarian): 37 µM
TGI (IGROV1 ovarian): > 100 µM
GI50 (K-562 leukemia): 4.08 µM
TGI (K-562 leukemia): > 100 µM
GI50 (KM12 colon): 91.6 µM
TGI (KM12 colon): > 100 µM
GI50 (LOX IMVI melanoma): 30.7 µM
TGI (LOX IMVI melanoma): > 100 µM
GI50 (M14 melanoma): 27.3 µM
TGI (M14 melanoma): > 100 µM
GI50 (MALME-3M melanoma): > 100 µM
TGI (MALME-3M melanoma): > 100 µM
GI50 (MCF7 breast): 15.8 µM
TGI (MCF7 breast): > 100 µM
GI50 (MDA-MB-231 breast): 27.3 µM
TGI (MDA-MB-231 breast): > 100 µM
GI50 (MDA-MB-435): 4.47 µM
TGI (MDA-MB-435): 41.7 µM
GI50 (MOLT-4 leukemia): 8.45 µM
TGI (MOLT-4 leukemia): > 100 µM
GI50 (NCI-H226 lung): > 100 µM
TGI (NCI-H226 lung): > 100 µM
GI50 (NCI-H23 lung): > 100 µM
TGI (NCI-H23 lung): > 100 µM
GI50 (NCI-H460 lung): > 100 µM
TGI (NCI-H460 lung): > 100 µM
GI50 (NCI-H522 lung): > 100 µM
TGI (NCI-H522 lung): > 100 µM
GI50 (NCI/ADR-RES ovarian): 19.6 µM
TGI (NCI/ADR-RES ovarian): > 100 µM
GI50 (OVCAR-3 ovarian): 58.3 µM
TGI (OVCAR-3 ovarian): > 100 µM
GI50 (OVCAR-4 ovarian): 75.4 µM
TGI (OVCAR-4 ovarian): > 100 µM
GI50 (OVCAR-5 ovarian): > 100 µM
TGI (OVCAR-5 ovarian): > 100 µM
GI50 (OVCAR-8 ovarian): 73.6 µM
TGI (OVCAR-8 ovarian): > 100 µM
GI50 (PC-3 prostate): 26.7 µM
TGI (PC-3 prostate): > 100 µM
GI50 (RPMI-8226 leukemia): 19.7 µM
TGI (RPMI-8226 leukemia): > 100 µM
GI50 (RXF 393 renal): 37 µM
TGI (RXF 393 renal): > 100 µM
GI50 (SF-268 CNS): 35.8 µM
TGI (SF-268 CNS): > 100 µM
GI50 (SF-295 CNS): > 100 µM
TGI (SF-295 CNS): > 100 µM
GI50 (SF-539 CNS): 45 µM
TGI (SF-539 CNS): > 100 µM
GI50 (SK-MEL-2 melanoma): 54 µM
TGI (SK-MEL-2 melanoma): > 100 µM
GI50 (SK-MEL-28 melanoma): > 100 µM
TGI (SK-MEL-28 melanoma): > 100 µM
GI50 (SK-MEL-5 melanoma): 49.2 µM
TGI (SK-MEL-5 melanoma): > 100 µM
GI50 (SK-OV-3 ovarian): > 100 µM
TGI (SK-OV-3 ovarian): > 100 µM
GI50 (SN12C renal): 53.7 µM
TGI (SN12C renal): > 100 µM
GI50 (SNB-19 CNS): 74.2 µM
TGI (SNB-19 CNS): > 100 µM
GI50 (SNB-75 CNS): 35.1 µM
TGI (SNB-75 CNS): > 100 µM
GI50 (SR leukemia): 3.82 µM
TGI (SR leukemia): > 100 µM
GI50 (SW-620 colon): 27.2 µM
TGI (SW-620 colon): > 100 µM
GI50 (T-47D breast): 28.8 µM
TGI (T-47D breast): > 100 µM
GI50 (TK-10 renal): 38.8 µM
TGI (TK-10 renal): > 100 µM
GI50 (U251 CNS): 42.6 µM
TGI (U251 CNS): > 100 µM
GI50 (UACC-62 melanoma): 44.6 µM
TGI (UACC-62 melanoma): > 100 µM
GI50 (UO-31 renal): 57.9 µM
TGI (UO-31 renal): > 100 µM
